In brackets after ≈: the same amount, converted by molar mass.
Legend:
[1] = test system: Blumeria graminis f. sp. hordei (type A6); assay: Curative leaf-segment test on barley; assay type: in vivo; details: barley (HORVX), 2 WAT; for Effect [%]: pustules relative to no carbonate
Method: (§1) Plants tested: barley (HORVX); cultivation of plants: three plants per pot were cultivated in fine Frustorfer soil for three weeks.
The plants were inoculated with fresh conidia of Blumeria graminis f. sp. hordei (type A6). 24-48h after inoculation with mildew, the plants were treated with the following liquid formulation: fungicidal formulation OPUS® SC 125 (BASF SE; comprising epoxiconazole). The effect of a carbonate (numbering according to Table 1 above) was tested by adding the respective carbonate to the liquid formulation prior to treatment of the plants.
10 hours after treatment with fungicidal formulation, beginning from the stalk, 7 cm leaf segments were cut; the most recent leaf and the second most recent leaf of a plant were used. 15 pieces of said 7 cm leaf segments were collected and put onto benzimidazole-agar (0.5% agar, 40 ppm benzimidazole added after treatment by autoclave. The agar plates (10x10cm) were then incubated at 18°C during night time and at 23°C during day time at 60-70% air moisture in an incubator for a certain time.
The determination of the mildew infestation was carried out by mildew pustules per leaf within 5 cm leaf length. WAT (weeks after treatment) were chosen according to constant impairment observed. Table Ex6b: Dosing of agrochemically active compound with and without component (b) in curative leaf-segment test on barley (HORVX) and the infestation of mildew after WAT

[2] = at 20°C; cited from earlier work
[3] = Solubility of carbonates in water (OECD guideline 105, flask method); assay type: physicochemical; details: for Solubility of carbonates in water: OECD 105 flask method
Source text: The water solubility of a substance is the saturation mass concentration of the substance in water at a given temperature. Determination according to OECD guideline for testing of chemicals 105, flask method.

[4] = test system: Blumeria graminis f. sp. hordei (type A6); assay: Protective leaf-segment test on barley; assay type: in vivo; details: barley (HORVX), 2 WAT; for Effect [%]: infestation relative to no carbonate
Method: as §1
The plants were treated with the following SC formulation: fungicidal formulation - 25% by weight azoxystrobin, 16.7% by weight Tamol® NN 2901, 10% by weight propyleneglycol, 48.3% by weight water. The effect of a carbonate (numbering according to Table 1 above) was tested by adding the respective carbonate to the […] formulation prior to treatment of the plants.
10 hours after treatment with fungicidal formulation, beginning from the stalk, 7 cm leaf segments have been cut; the most recent and the second most recent leaf of a plant were used. 15 pieces of said 7 cm leaf segments were collected and put onto benzimidazole-agar (0.5% agar, 40 ppm benzimidazole added after treatment by autoclave).
The leaf segments on the agar plates were inoculated with fresh conidia of Blumeria graminis f. sp. hordei (type A6).
The agar plates (10x10cm) were then incubated at 18°C during night time and 23°C during day time at 60-70% air moisture in an incubator for a certain time.
The determination of the mildew infestation was carried out by determining the surface per leaf within 5 cm leaf length infested with mildew. WAT (weeks after treatment) were chosen according to constant impairment observed.

[5] = Determination of boiling point of carbonates; assay type: physicochemical; details: calculated from boiling point measured at a pressure below 101.3 kPa
Method: (§2) Determination of boiling point: measured at a pressure below 101.3 kPa; the boiling point measured at this pressure below 101.3 kPa were used to calculate the boiling point at 101.3 kPa by using the following tool: http://www.calctool.org/CALC/chem/substance/boiling. Determination of dynamic viscosity: By using Anton Paar viscosimeter SVM 3000/G2, viscosity was measured at 23°C. Said Anton Paar viscosimeter is a rotational viskosimeter and works according the Stabinger measurement principle.

[6] = Determination of dynamic viscosity (Anton Paar viscosimeter SVM 3000/G2); assay type: physicochemical; details: dynamic viscosity at 23°C
Method: as §2

[7] = epoxiconazole 10 g/ha (OPUS® SC 125), amount of carbonate 0 g/ha
[8] = epoxiconazole 10 g/ha (OPUS® SC 125) plus carbonate No 1 at 50 g/ha
[9] = azoxystrobin 10 g/ha SC formulation plus carbonate No 1 at 50 g/ha
[10] = azoxystrobin 10 g/ha SC formulation, amount of carbonate 0 g/ha

SMILES: Fc1ccc([C@]2(Cn3cncn3)O[C@H]2c2ccccc2Cl)cc1 (racemic) [pesticide 4, epoxiconazole, reference compound]
- Mildew pustules - average value of 15 leaves [1, 7]: 41.3
- Effect [%] [1, 7]: 100%
- Solubility in H2O (data from literature*) [2]: 8.42 mg/l at 20 °C

SMILES: CCC(=O)OCC1COC(=O)O1 (stereo not shown) [compound 1]
- Mildew pustules - average value of 15 leaves [1, 8]: 34.7
- Effect [%] [1, 8]: 84%
- Solubility of carbonates in water [3]: 54 g carbonate per l water
- % leaf surface infested with mildew - average value of 15 leaves [4, 9]: 28%
- Effect [%] [4, 9]: 72.35%
- Boiling point °C at 101.3 kPa [5]: >180 °C
- Viscosity mPa.s at 23°C [6]: 32 mPa.s

SMILES: CCCC1COC(=O)O1 (stereo not shown) [compound 2]
- Solubility of carbonates in water [3]: 21 g carbonate per l water
- Boiling point °C at 101.3 kPa [5]: >180 °C
- Viscosity mPa.s at 23°C [6]: 4.2 mPa.s

SMILES: CC(=O)OCC1COC(=O)O1 (stereo not shown) [compound 3]
- Solubility of carbonates in water [3]: 72 g carbonate per l water
- Boiling point °C at 101.3 kPa [5]: >180 °C
- Viscosity mPa.s at 23°C [6]: 59.1 mPa.s

SMILES: CO/C=C(/C(=O)OC)c1ccccc1Oc1cc(Oc2ccccc2C#N)ncn1 [pesticide 2, azoxystrobin, reference compound]
- % leaf surface infested with mildew - average value of 15 leaves [4, 10]: 38.7%
- Effect [%] [4, 10]: 100%
- Solubility in H2O (data from literature*) [2]: 6.7 mg/l at 20 °C

SMILES: COC(=O)N(OC)c1ccccc1COc1ccn(-c2ccc(Cl)cc2)n1 [pesticide 3, pyraclostrobin]
- Solubility in H2O (data from literature*) [2]: 1.9 mg/l at 20 °C

SMILES: CC(C)(C)C(O)(CCc1ccc(Cl)cc1)Cn1cncn1 (stereo not shown) [pesticide 5, tebuconazole]
- Solubility in H2O (data from literature*) [2]: 29 mg/l at 20 °C

SMILES: CC(O)(Cn1cncn1)c1ccc(Oc2ccc(Cl)cc2)cc1C(F)(F)F (stereo not shown) [pesticide 7, mefentrifluconazole]
- Solubility in H2O (data from literature*) [2]: 0.81 mg/l at 20 °C

SMILES: Cn1cc(C(=O)Nc2ccccc2-c2cc(F)c(F)c(F)c2)c(C(F)F)n1 [pesticide 8, fluxapyroxad]
- Solubility in H2O (data from literature*) [2]: 3.88 mg/l at 20 °C

SMILES: CC(Cc1ccc(C(C)(C)C)cc1)CN1C[C@@H](C)O[C@@H](C)C1 (stereo partly shown) [pesticide 9, fenpropimorph]
- Solubility in H2O (data from literature*) [2]: 4.3mg/l at 20 °C

SMILES: CC1COC(=O)O1 (stereo not shown) [propylene carbonate, reference compound]
- water solubility ([3]; comparison value for propylene carbonate, source not stated): 175 mg/mL (≈ 1710 mM)

— patent publication EP3501280A1, “COMPOSITION COMPRISING AN AGROCHEMICALLY ACTIVE COMPOUND AND A CARBONATE” (priority 2017, dated 2019)
